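Grown in 96-well plates, cells were treated for 48 hours with each compound at five concentrations. Insufficient inhibition: endpoint recorded as highest concentration tested. Abbreviation: GI50, concentration required for 50% inhibition of growth.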 Active and inactive are the calls of the source. Cut-off read from the data, not from the text of the source: active = GI50 up to about 1.1 µM and inactive = higher. Some results are limits rather than exact numbers.

Test systems include KM12; NCI-H23; EKVX; HCT-116; SK-MEL-5; A498; LOX IMVI; HCT-15; UACC-257; M14; K562; NCI-H226; RPMI-8226; RXF 393; SW-620; NCI-H460; NCI/ADR-RES; Hs-578T.
Experiment in all cases: NCI anticancer screen, dose series, 48 h

As to `CSc1nc(-c2cc3c(c(SC)n2)CCCCC3)cc2c1CCCCC2`, the GI50 in the assay with KM12, in the assay with NCI-H23, with EKVX, in the assay with HCT-116, in the assay with SK-MEL-5 and with A498 was > 100 µM (inactive) throughout. Moreover, the GI50 is > 100 µM (inactive) in the assay on LOX IMVI; > 100 µM with HCT-15; > 100 µM (inactive) in the assay on UACC-257; > 100 µM (inactive) in the assay with M14; > 100 µM (inactive) in the assay with K562; > 100 µM (inactive) in the assay on NCI-H226. Besides, the GI50 with RPMI-8226, in the assay on RXF 393, in the assay on SW-620, with NCI-H460 and with NCI/ADR-RES was > 100 µM (inactive) throughout.

Consider `O=C1c2cscc2C(=O)c2c(OCc3ccccc3)ccc(OCc3ccccc3)c21`, for which the GI50 in the assay with KM12 was > 100 µM (inactive); in the assay on NCI-H23, > 100 µM (inactive); in the assay with EKVX, > 100 µM (inactive); in the assay with HCT-116, 91.6 µM (inactive); with SK-MEL-5, > 100 µM (inactive); with LOX IMVI, 97.9 µM (inactive). In addition, the GI50 in the assay on UACC-257 is > 100 µM (inactive); with Hs-578T, > 100 µM (inactive); in the assay with M14, > 100 µM (inactive); with K562, 61.1 µM (inactive); in the assay on NCI-H226 it was > 100 µM (inactive); with RPMI-8226 it was > 100 µM (inactive). Moreover, the GI50 in the assay with RXF 393 was 75.7 µM (inactive); in the assay with SW-620 it was > 100 µM (inactive); in the assay on NCI-H460, > 100 µM (inactive); with NCI/ADR-RES, > 100 µM (inactive).

As to `c1ccc2c[n+](CCCC[n+]3ccc4ccccc4c3)ccc2c1`, the GI50 with KM12, in the assay on NCI-H23, with EKVX, in the assay with HCT-116, in the assay with SK-MEL-5 and with A498 was > 100 µM (inactive) in each case. Also, the GI50 in the assay on LOX IMVI is > 100 µM (inactive); in the assay on HCT-15, > 100 µM; with UACC-257 it was > 100 µM (inactive); in the assay on M14 it was 1.12 µM (active); with K562 it was > 100 µM (inactive); in the assay with NCI-H226, > 100 µM (inactive). For the same compound, the GI50 in the assay on RPMI-8226, in the assay on RXF 393, in the assay with SW-620, with NCI-H460 and in the assay on NCI/ADR-RES was > 100 µM (inactive) each time.

Turning to `CC(C)N(C(C)C)S(=O)(=O)CC12CCC(C/C1=N\O)C2` (centres undefined), the GI50 in the assay with KM12, with NCI-H23, in the assay on EKVX, in the assay with HCT-116, with SK-MEL-5 and in the assay on LOX IMVI was > 100 µM (inactive) throughout. The GI50 was > 100 µM in the assay with HCT-15; > 100 µM (inactive) with UACC-257; > 100 µM (inactive) in the assay with Hs-578T; > 100 µM (inactive) in the assay on M14; > 100 µM (inactive) in the assay with K562; > 100 µM (inactive) in the assay on NCI-H226. The GI50 in the assay on RXF 393, in the assay on SW-620, with NCI-H460 and with NCI/ADR-RES was > 100 µM (inactive) in each case.

`COc1ccc(/C=N/Nc2nc3ccccc3c(=O)n2-c2ccccc2)cc1`: the GI50 in the assay with KM12 was > 100 µM (inactive); in the assay on NCI-H23, 55.6 µM (inactive); in the assay with EKVX it was > 100 µM (inactive); in the assay with HCT-116 it was > 100 µM (inactive); in the assay with SK-MEL-5 it was > 100 µM (inactive); in the assay on A498, > 100 µM (inactive). In addition, the GI50 in the assay on LOX IMVI is 95.1 µM (inactive); with HCT-15 it was > 100 µM; in the assay with UACC-257 it was > 100 µM (inactive); in the assay with M14, > 100 µM (inactive); in the assay with K562 it was > 100 µM (inactive); in the assay with NCI-H226, > 100 µM (inactive). In addition, the GI50 with RXF 393 is > 100 µM (inactive); in the assay with SW-620, > 100 µM (inactive); with NCI-H460, 28.2 µM (inactive); with NCI/ADR-RES, > 100 µM (inactive).

In the case of `O=C1CSC(c2c[nH]c3ccccc23)N1c1ccccc1[N+](=O)[O-]` (centres undefined), the GI50 in the assay with KM12, in the assay on NCI-H23, in the assay on EKVX, in the assay with HCT-116, in the assay with SK-MEL-5 and with LOX IMVI was > 100 µM (inactive) throughout. Also, the GI50 was > 100 µM with HCT-15; > 100 µM (inactive) with UACC-257; > 100 µM (inactive) in the assay on M14; > 100 µM (inactive) in the assay with K562; > 100 µM (inactive) in the assay on RPMI-8226; > 10 µM (inactive) in the assay with RXF 393. In addition, the GI50 with SW-620 and with NCI-H460 was > 100 µM (inactive) in each case.

With `O=C1CC(=O)NC(NNS(=O)(=O)c2ccccc2)=N1`, the GI50 in the assay on KM12 is > 100 µM (inactive); in the assay with NCI-H23, > 100 µM (inactive); with HCT-116 it was > 100 µM (inactive); with SK-MEL-5, > 100 µM (inactive); in the assay with HCT-15, > 100 µM; in the assay on UACC-257, > 100 µM (inactive). In addition, the GI50 in the assay with Hs-578T, with M14, in the assay on K562, with NCI-H226, with RPMI-8226 and with RXF 393 was > 100 µM (inactive) each time. Further, the GI50 in the assay on SW-620, in the assay on NCI-H460 and in the assay on NCI/ADR-RES was > 100 µM (inactive) each time.

As for `CCN1C/C(=C\c2ccc(Cl)cc2)c2[nH]c(=O)c(C#N)c(-c3ccc(Cl)cc3)c2C1`, the GI50 with KM12, with NCI-H23, with EKVX, in the assay on HCT-116, in the assay on SK-MEL-5 and in the assay with A498 was > 100 µM (inactive) in each case. Besides, the GI50 in the assay on LOX IMVI is > 100 µM (inactive); in the assay on HCT-15, > 100 µM; in the assay on UACC-257, > 100 µM (inactive); in the assay with M14 it was > 100 µM (inactive); in the assay with K562, > 100 µM (inactive); with NCI-H226 it was > 100 µM (inactive). Besides, the GI50 in the assay with RPMI-8226, with RXF 393, with SW-620, with NCI-H460 and with NCI/ADR-RES was > 100 µM (inactive) in each case.

With `N#CCC(=O)Nn1c(CC#N)nnc1Cc1ccccc1`, the GI50 was > 100 µM (inactive) in the assay on KM12; > 100 µM (inactive) with NCI-H23; > 100 µM (inactive) with HCT-116; > 100 µM (inactive) with SK-MEL-5; > 100 µM in the assay on HCT-15; > 100 µM (inactive) with UACC-257. Also, the GI50 in the assay on Hs-578T, in the assay with M14, in the assay with K562, with NCI-H226, with RPMI-8226 and in the assay on RXF 393 was > 100 µM (inactive) in each case. In addition, the GI50 in the assay with SW-620, with NCI-H460 and in the assay on NCI/ADR-RES was > 100 µM (inactive) each time.

In the case of `O=C(O)CN(CC(=O)O)Cc1ccn(-c2cccc(-n3ccc(CN(CC(=O)O)CC(=O)O)n3)n2)n1`, the GI50 with KM12 was > 100 µM (inactive); with NCI-H23, < 0.01 µM (active); in the assay on EKVX it was > 100 µM (inactive); in the assay with HCT-116 it was > 100 µM (inactive); in the assay with SK-MEL-5 it was > 100 µM (inactive); with HCT-15 it was > 100 µM. For the same compound, the GI50 with UACC-257, in the assay on Hs-578T, with M14, with NCI-H226, in the assay with RPMI-8226 and in the assay on RXF 393 was > 100 µM (inactive) each time. Besides, the GI50 in the assay with SW-620, with NCI-H460 and with NCI/ADR-RES was > 100 µM (inactive) throughout.

As to `O=C1/C(=C/c2ccc([N+](=O)[O-])cc2)CCCc2ccccc21`, the GI50 with KM12 is > 100 µM (inactive); in the assay with NCI-H23 it was > 100 µM (inactive); with EKVX, 48.6 µM (inactive); in the assay with HCT-116 it was > 100 µM (inactive); with LOX IMVI it was > 100 µM (inactive); in the assay on HCT-15 it was 69.2 µM. The GI50 is > 100 µM (inactive) with UACC-257; 25.8 µM (inactive) with Hs-578T; > 100 µM (inactive) in the assay with M14; > 100 µM (inactive) with K562; > 100 µM (inactive) in the assay with NCI-H226; > 100 µM (inactive) in the assay on RPMI-8226. In addition, the GI50 with SW-620, in the assay on NCI-H460 and with NCI/ADR-RES was > 100 µM (inactive) in each case.

Turning to `N#CI1OC(C(F)(F)F)(C(F)(F)F)c2ccccc21`, the GI50 in the assay on KM12 is 17 µM (inactive); in the assay on NCI-H23 it was 18.6 µM (inactive); with EKVX it was 14.6 µM (inactive); in the assay with HCT-116, 16.4 µM (inactive); in the assay with SK-MEL-5, 17.5 µM (inactive); in the assay on A498, 37.4 µM (inactive). Further, the GI50 in the assay on LOX IMVI was 18.8 µM (inactive); with HCT-15, 15.1 µM; in the assay on UACC-257, 22.2 µM (inactive); in the assay on M14 it was 19 µM (inactive); in the assay with K562, 12.1 µM (inactive); with NCI-H226 it was 17.8 µM (inactive). In addition, the GI50 was 29.3 µM (inactive) in the assay on RPMI-8226; 16.8 µM (inactive) in the assay with RXF 393; > 10 µM (inactive) in the assay with SW-620; 24.8 µM (inactive) with NCI-H460; 15.8 µM (inactive) with NCI/ADR-RES.

With `O=C1CC(C(=O)N2CCCCC2)n2c(=O)n(-c3ccccc3)c(=O)n2C1` (centres undefined), the GI50 in the assay on KM12, in the assay with NCI-H23, in the assay with EKVX, with HCT-116, in the assay on SK-MEL-5 and in the assay with LOX IMVI was > 100 µM (inactive) each time. Further, the GI50 is > 100 µM with HCT-15; > 100 µM (inactive) in the assay with UACC-257; > 100 µM (inactive) in the assay with Hs-578T; > 100 µM (inactive) with M14; > 100 µM (inactive) in the assay with NCI-H226; > 100 µM (inactive) in the assay on RXF 393. Moreover, the GI50 with NCI-H460 and in the assay with NCI/ADR-RES was > 100 µM (inactive) in each case.
